Experimental data taken from article PMC8539420, “Discovery of a Potent and Selective JNK3 Inhibitor with Neuroprotective Effect Against Amyloid β-Induced Neurotoxicity in Primary Rat Neurons” (International Journal of Molecular Sciences, 2021).

How the values were obtained:
c-Kit = target: T1, c-Kit (Homo sapiens, UniProt P10721); test: Kinase panel screening 1 μM; assay type: biochemical; details: read-out: enzymatic inhibition c-Kit
T1 construct: purchased Reaction Biology Corp. (Kinase HotSpot)

BRAF (V599E) = target: T2, BRAF (V599E) (Homo sapiens, UniProt P15056, V600E); test: Kinase panel screening 1 μM; assay type: biochemical; details: read-out: enzymatic inhibition BRAF (V599E)
T2 construct: purchased Reaction Biology Corp. (Kinase HotSpot)

EGFR = target: T3, EGFR (Homo sapiens, UniProt P00533); test: Kinase panel screening 1 μM; assay type: biochemical; details: read-out: enzymatic inhibition EGFR
T3 construct: purchased Reaction Biology Corp. (Kinase HotSpot)

c-jun = test: Amyloid-β-induced JNK activation (c-jun phosphorylation) in neurons; assay type: cell-based; details: rat primary cortical neurons
Source text: (§1) To establish whether the derived selective JNK3 inhibitor actually has the ability to protect neurons from amyloid β-induced neuronal cell death, which is known as the pathogenesis of Alzheimer’s disease, we performed cytotoxicity experiments using Aβ 42, which is known as the most toxic fragment of the amyloid protein. The amyloid-β is known to mainly cause apoptosis during cell death, so it was confirmed whether the derived selective JNK3 inhibitors affect the activation (cleavage) of caspase-3, which are apoptosis-related signaling substances. […] This means that selective JNK3 inhibitors can inhibit apoptosis signaling by amyloid-β in neurons, thereby inhibiting apoptosis. Additionally, we confirmed that JNK activation was induced by amyloid-β in neurons, and the derived selective JNK3 inhibitors could inhibit JNK activation induced by amyloid-β. […] Then, the experiments for JNK3 inhibitors’ effect on the viability of neurons were conducted for five 6-dihydroxy benzimidazoles (35a-35e) by comparing it with previously published resveratrol as a positive control. On the 5th day of rat primary cortical neuron differentiation, each compound was pre-treated for 90 min and then treated with 10 μM Aβ 42 (HIFP-treated) for 24 or 48 h, and cell viability was measured by MTT assay. […]

PLK1 = target: T4, PLK1 (Homo sapiens, UniProt P53350); test: Kinase panel screening 1 μM; assay type: biochemical; details: read-out: enzymatic inhibition PLK1
T4 construct: purchased Reaction Biology Corp. (Kinase HotSpot)

c-MET = target: T5, c-MET (Homo sapiens, UniProt P08581); test: Kinase panel screening 1 μM; assay type: biochemical; details: read-out: enzymatic inhibition c-MET
T5 construct: purchased Reaction Biology Corp. (Kinase HotSpot)

CAMKK1 = target: T6, CAMKK1 (Homo sapiens, UniProt Q8N5S9); test: Kinase panel screening 1 μM; assay type: biochemical; details: read-out: enzymatic inhibition CAMKK1
T6 construct: purchased Reaction Biology Corp. (Kinase HotSpot)

JAK3 = target: T7, JAK3 (Homo sapiens, UniProt P52333); test: Kinase panel screening 1 μM; assay type: biochemical; details: read-out: enzymatic inhibition JAK3
T7 construct: purchased Reaction Biology Corp. (Kinase HotSpot)

over 38 kinases = test: Kinase panel screening, single dose 1 μM, whole panel; assay type: biochemical; details: duplicate
RON/MST1R = target: T8, RON/MST1R (Homo sapiens, UniProt Q04912); test: Kinase panel screening 1 μM; assay type: biochemical; details: read-out: enzymatic inhibition RON/MST1R
T8 construct: purchased Reaction Biology Corp. (Kinase HotSpot)

ROS/ROS1 = target: T9, ROS/ROS1 (Homo sapiens, UniProt P08922); test: Kinase panel screening 1 μM; assay type: biochemical; details: read-out: enzymatic inhibition ROS/ROS1
T9 construct: purchased Reaction Biology Corp. (Kinase HotSpot)

FMS = target: T10, FMS (Homo sapiens, UniProt P07333); test: Kinase panel screening 1 μM; assay type: biochemical; details: read-out: enzymatic inhibition FMS
T10 construct: purchased Reaction Biology Corp. (Kinase HotSpot)

LCK = target: T11, LCK (Homo sapiens, UniProt P06239); test: Kinase panel screening 1 μM; assay type: biochemical; details: read-out: enzymatic inhibition LCK
T11 construct: purchased Reaction Biology Corp. (Kinase HotSpot)

c-MER = target: T12, c-MER (Homo sapiens, UniProt Q12866); test: Kinase panel screening 1 μM; assay type: biochemical; details: read-out: enzymatic inhibition c-MER
T12 construct: purchased Reaction Biology Corp. (Kinase HotSpot)

MEK1 = target: T13, MEK1 (Homo sapiens, UniProt Q02750); test: Kinase panel screening 1 μM; assay type: biochemical; details: read-out: enzymatic inhibition MEK1
T13 construct: purchased Reaction Biology Corp. (Kinase HotSpot)

LYN = target: T14, LYN (Homo sapiens, UniProt P07948); test: Kinase panel screening 1 μM; assay type: biochemical; details: read-out: enzymatic inhibition LYN
T14 construct: purchased Reaction Biology Corp. (Kinase HotSpot)

IGF1R = target: T15, IGF1R (Homo sapiens, UniProt P08069); test: Kinase panel screening 1 μM; assay type: biochemical; details: read-out: enzymatic inhibition IGF1R
T15 construct: purchased Reaction Biology Corp. (Kinase HotSpot)

GSK3β = target: T16, GSK3β (Homo sapiens, UniProt P49841); test: Kinase HotSpot assay, GSK3β; assay type: biochemical
T16 construct: purchased Reaction Biology Corp

TRKC = target: T17, TRKC (Homo sapiens, UniProt Q16288); test: Kinase panel screening 1 μM; assay type: biochemical; details: read-out: enzymatic inhibition TRKC
T17 construct: purchased Reaction Biology Corp. (Kinase HotSpot)

TYRO3/SKY = target: T18, TYRO3/SKY (Homo sapiens, UniProt Q06418); test: Kinase panel screening 1 μM; assay type: biochemical; details: read-out: enzymatic inhibition TYRO3/SKY
T18 construct: purchased Reaction Biology Corp. (Kinase HotSpot)

caspase-3 = test: Western blot of amyloid-β-induced caspase-3 activation (cleavage) in neurons; assay type: cell-based, rat; details: pre-treated 90 minutes, 10 μM amyloid-β1-42 24 hours
Source text: as §1

BTK = target: T19, BTK (Homo sapiens, UniProt Q06187); test: Kinase panel screening 1 μM; assay type: biochemical; details: read-out: enzymatic inhibition BTK
T19 construct: purchased Reaction Biology Corp. (Kinase HotSpot)

FYN = target: T20, FYN (Homo sapiens, UniProt P06241); test: Kinase panel screening 1 μM; assay type: biochemical; details: read-out: enzymatic inhibition FYN
T20 construct: purchased Reaction Biology Corp. (Kinase HotSpot)

CDK1/cyclin A = target: T21, CDK1/cyclin A (Homo sapiens, UniProt P06493); test: Kinase panel screening 1 μM; assay type: biochemical; details: read-out: enzymatic inhibition CDK1/cyclin A
T21 construct: purchased Reaction Biology Corp. (Kinase HotSpot)
T21 sequence (P06493 whole entry): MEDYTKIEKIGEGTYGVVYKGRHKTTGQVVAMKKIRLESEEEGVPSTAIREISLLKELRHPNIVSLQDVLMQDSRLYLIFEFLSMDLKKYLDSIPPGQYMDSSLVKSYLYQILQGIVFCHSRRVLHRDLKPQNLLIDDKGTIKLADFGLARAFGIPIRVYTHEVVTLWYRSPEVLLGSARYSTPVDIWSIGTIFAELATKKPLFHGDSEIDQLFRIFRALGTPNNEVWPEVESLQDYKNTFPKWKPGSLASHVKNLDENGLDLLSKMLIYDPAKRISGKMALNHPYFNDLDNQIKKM
T21 sequence (P20248 whole entry partner): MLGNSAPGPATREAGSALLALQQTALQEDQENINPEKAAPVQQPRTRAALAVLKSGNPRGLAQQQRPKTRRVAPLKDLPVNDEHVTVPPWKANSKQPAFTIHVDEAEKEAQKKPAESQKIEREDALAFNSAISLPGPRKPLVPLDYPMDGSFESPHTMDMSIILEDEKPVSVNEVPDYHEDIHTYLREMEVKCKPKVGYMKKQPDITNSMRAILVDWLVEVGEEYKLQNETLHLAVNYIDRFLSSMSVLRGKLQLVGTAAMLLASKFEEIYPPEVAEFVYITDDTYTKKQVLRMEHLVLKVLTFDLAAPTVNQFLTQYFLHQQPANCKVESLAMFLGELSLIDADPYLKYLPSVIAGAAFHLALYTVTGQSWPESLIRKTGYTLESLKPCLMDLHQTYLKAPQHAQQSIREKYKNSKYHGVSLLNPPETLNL

T16 sequence (P49841 whole entry): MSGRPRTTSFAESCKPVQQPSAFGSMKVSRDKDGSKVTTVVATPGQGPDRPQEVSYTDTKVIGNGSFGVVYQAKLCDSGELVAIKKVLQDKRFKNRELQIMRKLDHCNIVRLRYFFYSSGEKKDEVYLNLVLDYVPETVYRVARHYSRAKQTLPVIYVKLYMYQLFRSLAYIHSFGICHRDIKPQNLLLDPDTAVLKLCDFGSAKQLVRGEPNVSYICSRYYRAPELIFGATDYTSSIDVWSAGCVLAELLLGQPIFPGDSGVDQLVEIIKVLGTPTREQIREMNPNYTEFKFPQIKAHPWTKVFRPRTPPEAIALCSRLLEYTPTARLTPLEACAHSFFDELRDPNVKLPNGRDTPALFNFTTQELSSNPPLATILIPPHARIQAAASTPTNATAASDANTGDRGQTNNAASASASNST
T3 sequence (P00533 25-1210): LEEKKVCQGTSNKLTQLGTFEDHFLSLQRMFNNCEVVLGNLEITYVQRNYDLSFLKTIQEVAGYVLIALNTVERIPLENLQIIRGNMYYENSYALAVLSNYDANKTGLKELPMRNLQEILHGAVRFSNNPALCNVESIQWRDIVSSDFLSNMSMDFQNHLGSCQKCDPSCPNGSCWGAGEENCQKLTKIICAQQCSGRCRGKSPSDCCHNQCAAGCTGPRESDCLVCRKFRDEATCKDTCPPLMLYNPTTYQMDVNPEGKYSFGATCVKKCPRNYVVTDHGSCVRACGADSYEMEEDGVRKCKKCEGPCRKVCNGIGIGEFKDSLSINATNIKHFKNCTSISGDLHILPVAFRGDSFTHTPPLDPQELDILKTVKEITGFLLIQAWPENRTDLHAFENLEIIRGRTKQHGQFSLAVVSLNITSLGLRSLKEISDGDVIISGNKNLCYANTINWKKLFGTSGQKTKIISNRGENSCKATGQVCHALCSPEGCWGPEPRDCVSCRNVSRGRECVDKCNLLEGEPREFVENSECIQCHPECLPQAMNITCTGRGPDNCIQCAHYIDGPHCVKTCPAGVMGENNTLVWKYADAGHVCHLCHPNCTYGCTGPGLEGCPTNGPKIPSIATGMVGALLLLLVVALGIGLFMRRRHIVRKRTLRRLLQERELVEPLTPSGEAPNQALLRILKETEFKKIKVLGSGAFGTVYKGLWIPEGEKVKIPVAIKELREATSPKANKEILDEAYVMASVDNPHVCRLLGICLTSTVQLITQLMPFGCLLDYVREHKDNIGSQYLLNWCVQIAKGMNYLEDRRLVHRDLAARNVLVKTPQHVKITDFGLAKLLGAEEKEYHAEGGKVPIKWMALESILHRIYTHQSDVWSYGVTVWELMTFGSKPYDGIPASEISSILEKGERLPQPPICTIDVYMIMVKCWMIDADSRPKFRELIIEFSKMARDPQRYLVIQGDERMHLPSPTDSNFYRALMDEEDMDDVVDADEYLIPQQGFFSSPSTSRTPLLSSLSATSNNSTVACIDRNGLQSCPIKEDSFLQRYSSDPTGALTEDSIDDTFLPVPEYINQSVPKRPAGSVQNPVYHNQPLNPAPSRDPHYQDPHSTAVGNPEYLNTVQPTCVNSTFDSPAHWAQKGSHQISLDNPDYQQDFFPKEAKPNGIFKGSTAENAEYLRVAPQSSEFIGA
T9 sequence (P08922 28-2347): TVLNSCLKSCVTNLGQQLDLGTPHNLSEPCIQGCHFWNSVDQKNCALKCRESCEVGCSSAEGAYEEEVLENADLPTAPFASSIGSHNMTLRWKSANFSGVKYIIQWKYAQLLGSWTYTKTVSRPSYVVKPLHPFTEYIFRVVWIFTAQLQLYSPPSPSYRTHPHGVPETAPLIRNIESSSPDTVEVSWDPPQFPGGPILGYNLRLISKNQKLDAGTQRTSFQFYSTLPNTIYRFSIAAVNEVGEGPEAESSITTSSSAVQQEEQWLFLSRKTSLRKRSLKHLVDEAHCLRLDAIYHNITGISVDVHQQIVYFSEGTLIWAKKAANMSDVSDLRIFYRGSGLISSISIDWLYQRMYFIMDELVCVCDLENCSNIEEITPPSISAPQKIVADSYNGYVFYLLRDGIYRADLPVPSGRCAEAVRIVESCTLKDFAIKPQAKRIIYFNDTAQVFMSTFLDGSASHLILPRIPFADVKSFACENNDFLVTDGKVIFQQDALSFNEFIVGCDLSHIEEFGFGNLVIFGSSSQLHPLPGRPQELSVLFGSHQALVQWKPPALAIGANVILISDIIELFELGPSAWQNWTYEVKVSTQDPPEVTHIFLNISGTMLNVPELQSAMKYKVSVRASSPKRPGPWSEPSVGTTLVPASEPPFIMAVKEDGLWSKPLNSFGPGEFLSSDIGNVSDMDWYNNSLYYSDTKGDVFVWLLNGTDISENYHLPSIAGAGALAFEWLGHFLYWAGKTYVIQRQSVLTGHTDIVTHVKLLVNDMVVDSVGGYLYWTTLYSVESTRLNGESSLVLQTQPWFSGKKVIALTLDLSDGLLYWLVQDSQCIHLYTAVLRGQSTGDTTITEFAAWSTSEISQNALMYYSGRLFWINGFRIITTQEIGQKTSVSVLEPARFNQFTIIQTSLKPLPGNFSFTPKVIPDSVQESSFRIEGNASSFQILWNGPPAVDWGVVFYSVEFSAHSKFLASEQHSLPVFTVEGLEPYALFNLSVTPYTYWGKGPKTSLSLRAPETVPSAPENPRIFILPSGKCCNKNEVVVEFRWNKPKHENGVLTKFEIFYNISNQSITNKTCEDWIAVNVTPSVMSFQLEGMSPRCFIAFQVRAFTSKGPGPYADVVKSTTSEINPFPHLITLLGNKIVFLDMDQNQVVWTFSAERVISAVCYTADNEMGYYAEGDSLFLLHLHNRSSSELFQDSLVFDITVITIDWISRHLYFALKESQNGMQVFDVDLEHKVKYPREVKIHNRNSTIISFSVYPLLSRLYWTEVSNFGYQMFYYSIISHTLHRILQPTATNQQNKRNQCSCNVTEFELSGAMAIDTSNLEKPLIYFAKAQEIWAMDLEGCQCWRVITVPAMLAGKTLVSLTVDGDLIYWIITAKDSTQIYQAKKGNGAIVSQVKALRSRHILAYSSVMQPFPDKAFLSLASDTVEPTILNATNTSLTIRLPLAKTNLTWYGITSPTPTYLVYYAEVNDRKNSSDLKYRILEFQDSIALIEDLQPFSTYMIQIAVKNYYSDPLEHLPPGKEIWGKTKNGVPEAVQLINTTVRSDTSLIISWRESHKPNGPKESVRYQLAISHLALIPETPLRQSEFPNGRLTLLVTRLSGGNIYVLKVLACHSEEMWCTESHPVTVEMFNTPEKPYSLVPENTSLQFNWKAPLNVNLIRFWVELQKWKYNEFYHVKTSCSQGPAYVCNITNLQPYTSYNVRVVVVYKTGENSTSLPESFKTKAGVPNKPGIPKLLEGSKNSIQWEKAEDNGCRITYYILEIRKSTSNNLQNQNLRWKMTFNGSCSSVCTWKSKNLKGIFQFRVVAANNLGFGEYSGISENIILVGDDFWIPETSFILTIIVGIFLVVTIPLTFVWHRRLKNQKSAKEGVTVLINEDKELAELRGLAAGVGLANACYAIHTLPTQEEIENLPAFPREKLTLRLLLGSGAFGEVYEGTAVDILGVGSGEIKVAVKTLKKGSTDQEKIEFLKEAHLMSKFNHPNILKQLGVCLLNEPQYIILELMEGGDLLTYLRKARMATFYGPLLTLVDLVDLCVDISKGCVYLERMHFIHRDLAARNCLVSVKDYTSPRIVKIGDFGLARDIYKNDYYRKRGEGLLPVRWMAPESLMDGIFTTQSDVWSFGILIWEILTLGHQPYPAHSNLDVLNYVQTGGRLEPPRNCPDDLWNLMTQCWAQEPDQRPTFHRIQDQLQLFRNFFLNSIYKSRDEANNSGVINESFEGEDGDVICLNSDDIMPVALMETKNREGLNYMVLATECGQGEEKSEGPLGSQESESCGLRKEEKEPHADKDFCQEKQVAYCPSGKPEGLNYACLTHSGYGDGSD
T13 sequence (Q02750 whole entry): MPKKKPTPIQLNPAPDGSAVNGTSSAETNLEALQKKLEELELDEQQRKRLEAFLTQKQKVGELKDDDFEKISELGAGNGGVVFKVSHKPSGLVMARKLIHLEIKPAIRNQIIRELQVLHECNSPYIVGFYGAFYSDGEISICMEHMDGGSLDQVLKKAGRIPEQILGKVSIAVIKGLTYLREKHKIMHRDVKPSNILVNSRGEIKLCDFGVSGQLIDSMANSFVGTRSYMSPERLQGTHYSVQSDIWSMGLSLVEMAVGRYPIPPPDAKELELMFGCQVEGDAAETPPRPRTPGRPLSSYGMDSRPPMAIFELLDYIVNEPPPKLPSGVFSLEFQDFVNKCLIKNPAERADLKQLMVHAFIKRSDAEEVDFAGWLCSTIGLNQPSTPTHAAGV

## O=C(C1CC1)N1CCC[C@H](Nc2nccc(-n3c(-c4ccc5c(c4)OCCO5)nc4cc(O)c(O)cc43)n2)C1 [35b, (S)-Cyclopropyl(3-((4-(2-(2,3-dihydrobenzo[b][1,4]dioxin-6-yl)-5,6-dihydroxy-1H-benzo[d]imidazol-1-yl)pyrimidin-2-yl)amino)piperidin-1-yl)methanone]
c-Kit
  inhibition at 1 µM: 0%
BRAF (V599E)
  inhibition at 1 µM: 0%
EGFR
  inhibition at 1 µM: 0%
c-jun
  phosphorylation of c-jun induced by amyloid-β: inhibit phosphorylation of c-jun
PLK1
  inhibition at 1 µM: 0%
c-MET
  inhibition at 1 µM: 0%
CAMKK1
  inhibition at 1 µM: 0%
JAK3
  inhibition at 1 µM: 10.7%
Over 38 kinases
  inhibition activity for most other kinases: less than 15%
RON/MST1R
  inhibition at 1 µM: 0%
ROS/ROS1
  inhibition at 1 µM: 0%
FMS
  inhibition at 1 µM: 8.11%
LCK
  inhibition at 1 µM: 7.63%
c-MER
  inhibition at 1 µM: 2.29%
MEK1
  inhibition at 1 µM: 0%
LYN
  inhibition at 1 µM: 10.8%
IGF1R
  inhibition at 1 µM: 13.4%
GSK3β
  IC50: 5.85 µM
GSK3β; 1 μM, read-out: enzymatic inhibition GSK3b
  inhibition at 1 µM: 85.5%
GSK3β; GSK3β IC50 in comparison with JNK3
  Selectivity/JNK3: >600 fold
TRKC
  inhibition at 1 µM: 8.78%
TYRO3/SKY
  inhibition at 1 µM: 0%
caspase-3
  activation (cleavage) of caspase-3 by amyloid-β: inhibited the activation of caspase-3
BTK
  inhibition at 1 µM: 9.53%
FYN
  inhibition at 1 µM: 18.3%
CDK1/cyclin A
  inhibition at 1 µM: 0%
